Results from patent publication US7872122B2, “Process for making Biolimus A9” (Chunghwa Chemical Synthesis & Biotech Co., Ltd., priority 2009, dated 2011).

Test: Stability of Biolimus A9 at 40° C. with added anti-oxidant BHT
Type: physicochemical
Excerpt: The yield data of different amounts of anti-oxidant as added into Biolimus A9 with respect to time lapse of weeks are summarized in Table 1 as below-mentioned.

## CCOCCO[C@@H]1CC[C@@H](C[C@@H](C)[C@@H]2CC(=O)[C@H](C)/C=C(\C)[C@@H](O)[C@@H](OC)C(=O)[C@H](C)C[C@H](C)/C=C/C=C/C=C(\C)[C@@H](OC)C[C@@H]3CC[C@@H](C)[C@@](O)(O3)C(=O)C(=O)N3CCCC[C@H]3C(=O)O2)C[C@H]1OC [Biolimus A9]
BHT 0.0% (w/w), 0 week
  Purity (%) of Biolimus A9: 99.7%
BHT 0.0% (w/w), 2 weeks
  Purity (%) of Biolimus A9: 98.2%
BHT 0.0% (w/w), 4 weeks
  Purity (%) of Biolimus A9: 88.4%
BHT 0.0% (w/w), 6 weeks
  Purity (%) of Biolimus A9: 69.7%
BHT 0.1% (w/w), 0 week
  Purity (%) of Biolimus A9: 99.7%
BHT 0.1% (w/w), 2 weeks
  Purity (%) of Biolimus A9: 99.5%
BHT 0.1% (w/w), 4 weeks
  Purity (%) of Biolimus A9: 99.5%
BHT 0.1% (w/w), 6 weeks
  Purity (%) of Biolimus A9: 99.5%
BHT 0.2% (w/w), 0 week
  Purity (%) of Biolimus A9: 99.6%
BHT 0.2% (w/w), 2 weeks
  Purity (%) of Biolimus A9: 99.6%
BHT 0.2% (w/w), 4 weeks
  Purity (%) of Biolimus A9: 99.5%
BHT 0.2% (w/w), 6 weeks
  Purity (%) of Biolimus A9: 99.5%
BHT 0.5% (w/w), 0 week
  Purity (%) of Biolimus A9: 99.6%
BHT 0.5% (w/w), 2 weeks
  Purity (%) of Biolimus A9: 99.5%
BHT 0.5% (w/w), 4 weeks
  Purity (%) of Biolimus A9: 99.4%
BHT 0.5% (w/w), 6 weeks
  Purity (%) of Biolimus A9: 99.4%
BHT 1.0% (w/w), 0 week
  Purity (%) of Biolimus A9: 99.6%
BHT 1.0% (w/w), 2 weeks
  Purity (%) of Biolimus A9: 99.5%
BHT 1.0% (w/w), 4 weeks
  Purity (%) of Biolimus A9: 99.4%
BHT 1.0% (w/w), 6 weeks
  Purity (%) of Biolimus A9: 99.4%
BHT added for 0.1%, 0.2, 0.5%, and 1% (w/w), six-week storage
  yield after six-week storage: more than 99.4%
